Experimental data reported in PMC6677754, “In silico design and optimization of selective membranolytic anticancer peptides” (Scientific Reports, 2019).
Peptide text beside a SMILES is read from it.

Columns and labels:
[1] = test system: noncancer HDMEC primary cells (human dermal microvascular endothelial cells); test: Cell viability assay (MTT); format: cell-based; details: Table S2; noncancer primary cells; MTT, 24 h; mean ± sd; N = 2 independent measurements with six technical replicates each (Figs S6-S8)
Outline: (§1)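 Viability by MTT: 10^4 cells/well exposed 24 h to 2-fold peptide dilutions from 100 μM in DMEM, then 1 h with 0.5 mg mL−1 MTT; absorbance at 540 nm relative to peptide-free medium as 100% survival. EC50 from a 3-parameter log-logistic fit.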

[2] = test system: A549 lung adenocarcinoma cell line; test: Cell viability assay (MTT); format: cell-based, human; details: Table S2; MTT, 24 h; mean ± sd; N = 2 independent measurements with six technical replicates each (Figs S6-S8); read-out: A549 EC50 /µM
Outline: as §1

[3] = test system: MCF7 breast adenocarcinoma cell line; test: Cell viability assay (MTT); format: cell-based, human; details: Table S2, 24 h, mean ± sd, N = 2 independent measurements with six technical replicates each (Figs S6-S8)
Outline: as §1

[4] = test system: human erythrocytes; test: Hemolysis assay; format: cell-based; details: red cells of human, 1 h
Outline: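 Washed human erythrocytes (5% v/v in PBS) were mixed with peptide plated as a 200–6.25 μM series, in triplicate, for 1 h at 37 °C. Released haemoglobin in the supernatant was read at 540 nm, scaled to 0.1% Triton X-100 (100%) and PBS (0%). HC50 came from a 3-parameter log-logistic fit.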

Row | SMILES | EC50 [1] [µM] | EC50 [2] [µM] | EC50 [3] [µM] | Eryhtr. HC50 /µM [4] [µM]
1 | CC[C@H](C)[C@H](NC(=O)[C@H](Cc1c[nH]cn1)NC(=O)[C@H](Cc1c[nH]c2ccccc12)NC(=O)[C@H](C)NC(=O)[C@H](CCCNC(=N)N)NC(=O)[C@H](CCCNC(=N)N)NC(=O)[C@H](CC(C)C)NC(=O)[C@H](Cc1c[nH]c2ccccc12)NC(=O)[C@@H](NC(=O)[C@H](CCCNC(=N)N)NC(=O)[C@@H](NC(=O)[C@H](CCCNC(=N)N)NC(=O)[C@H](CCCNC(=N)N)NC(=O)[C@H](CC(C)C)NC(=O)[C@H](Cc1ccc(O)cc1)NC(=O)[C@@H](N)CCC(N)=O)C(C)C)[C@@H](C)O)C(=O)N[C@@H](CC(C)C)C(=O)NCC(=O)N[C@@H](CCCCN)C(=O)N[C@H](C(N)=O)C(C)C [Off2.2.8] (H-QYLRRVRTWLRRAWHILGKV-NH2) | 10.3 ± 0.3 | 16.5 ± 0.2 | 11 ± 0.2 | 21 ± 1
2 | CC[C@H](C)[C@H](NC(=O)[C@H](CCCCN)NC(=O)[C@H](CCCCN)NC(=O)[C@H](CC(C)C)NC(=O)[C@H](CC(C)C)NC(=O)[C@@H](N)CCC(N)=O)C(=O)N[C@@H](CCCNC(=N)N)C(=O)N[C@H](C(=O)N[C@@H](Cc1c[nH]c2ccccc12)C(=O)N[C@@H](Cc1ccc(O)cc1)C(=O)N[C@@H](CCCNC(=N)N)C(=O)N[C@@H](CCCCN)C(=O)N[C@@H](C)C(=O)N[C@@H](Cc1c[nH]c2ccccc12)C(=O)N[C@@H](Cc1c[nH]cn1)C(=O)N[C@H](C(=O)N[C@@H](Cc1ccc(O)cc1)C(=O)NCC(=O)N[C@@H](CCCCN)C(=O)N[C@H](C(N)=O)C(C)C)C(C)C)[C@@H](C)O [Off2.2.9] (H-QLLKKIRTWYRKAWHVYGKV-NH2) | 21 ± 2 | 28 ± 3 | 13 ± 1 | > 200
3 | CC[C@H](C)[C@H](NC(=O)[C@H](CC(C)C)NC(=O)[C@H](CCCCN)NC(=O)[C@H](Cc1ccccc1)NC(=O)[C@@H](NC(=O)[C@H](CCCCN)NC(=O)[C@H](CCCCN)NC(=O)[C@H](Cc1ccccc1)NC(=O)[C@H](Cc1c[nH]c2ccccc12)NC(=O)[C@@H](NC(=O)[C@H](CCCCN)NC(=O)[C@H](CC(C)C)NC(=O)[C@H](Cc1c[nH]cn1)NC(=O)[C@H](CCCNC(=N)N)NC(=O)[C@@H](NC(=O)[C@H](Cc1ccc(O)cc1)NC(=O)[C@@H](N)CCCCN)[C@@H](C)CC)[C@@H](C)O)C(C)C)C(=O)NCC(=O)N[C@@H](CCC(=O)O)C(=O)N[C@H](C(N)=O)C(C)C [Off4] (H-KYIRHLKTWFKKVFKLIGEV-NH2) | 7.1 ± 0.1 | 15 ± 0.1 | 11 ± 2 | 20 ± 3
4 | CC(C)C[C@H](NC(=O)[C@H](CCCNC(=N)N)NC(=O)CNC(=O)[C@H](CC(C)C)NC(=O)[C@@H](NC(=O)[C@H](CCCCN)NC(=O)[C@H](Cc1c[nH]c2ccccc12)NC(=O)[C@H](Cc1ccc(O)cc1)NC(=O)[C@H](CCCNC(=N)N)NC(=O)[C@H](CCCCN)NC(=O)[C@H](Cc1ccc(O)cc1)NC(=O)[C@@H](NC(=O)[C@@H](NC(=O)[C@H](CCCCN)NC(=O)[C@H](Cc1ccccc1)NC(=O)[C@H](Cc1c[nH]cn1)NC(=O)[C@H](CCCCN)NC(=O)[C@H](CC(C)C)NC(=O)[C@H](Cc1ccccc1)NC(=O)[C@@H](N)CCCNC(=N)N)[C@@H](C)O)C(C)C)C(C)C)C(N)=O [Off8] (H-RFLKHFKTVYKRYWKVLGRL-NH2) | 14.3 ± 0.2 | 17 ± 4 | 11.9 ± 0.1 | 144 ± 4
5 | CC[C@H](C)[C@H](NC(=O)[C@H](CCCCN)NC(=O)[C@@H]1CCCN1C(=O)[C@H](Cc1c[nH]c2ccccc12)NC(=O)[C@@H](NC(=O)[C@H](Cc1c[nH]cn1)NC(=O)[C@H](Cc1c[nH]c2ccccc12)NC(=O)[C@H](C)NC(=O)[C@H](CCCCN)NC(=O)[C@H](CCCCN)NC(=O)[C@@H](NC(=O)[C@H](Cc1c[nH]c2ccccc12)NC(=O)[C@@H](NC(=O)[C@H](Cc1c[nH]cn1)NC(=O)[C@H](CC(C)C)NC(=O)[C@H](CCC(N)=O)NC(=O)[C@H](CCCNC(=N)N)NC(=O)[C@@H](NC(=O)[C@H](CCCNC(=N)N)NC(=O)[C@@H](N)CCC(N)=O)[C@@H](C)CC)[C@@H](C)O)[C@@H](C)CC)[C@@H](C)CC)C(N)=O [Off2.10] (H-QRIRQLHTWIKKAWHIWPKI-NH2) | 39.7 ± 0.3 | 40 ± 2 | 28.6 ± 0.1 | > 200
